In patent US4940716A, “2-amino-tetrahydro-isoquinolene derivatives and a process for the preparation thereof and pharmaceutical compositions containing same” (Chinoin Gyogyszer es Vegyeszeti Termekek Gyara Rt, priority 1987, dated 1990):

Assay: Salidiuretic screening test in rats (Lipschitz method modified by Kagawa and Kalm), 5 mg/kg p.o.
Format: in vivo, rats (LATI CFY strain, male)
Settings: for K secretion, % of simultaneously measured control / Na secretion, % of simultaneously measured control / Water secretion, % of simultaneously measured control / secreted Na/K: single oral dose 5 mg/kg, rat; for Na/K ratio (in words) / secretion of urine amount and alkali metal ion: 5 mg/kg per os, rats; for secretion of urine amount and alkali metal ion: compared with dihydrochlorothiazide and furosemid
Method: Significant diuretic compounds containing an isoquinoline ring system have not been disclosed and therefore it is surprising that the compounds of the Formula (I) show a significant diuretic and saluretic activity. In a screening test carried out in rats (administered per os 5 mg/kg) the compounds according to the invention were compared with dihydrochlorothiazide and furosemid. […] Screen tests were carried out in masculine rats belonging to […] strain weighing at an average 240 g. The animals obtained standard rat nourishment. 16 hours before the experiment the animals were deprived of nourishment but the liquid uptake was not restricted. In order to show diuretic activity the procedure of Lipschitznek modified by Kagawa and Kalm was used. (Arch. Int. Pharmacodyn. 137, 241-249 (1962). The animals were placed into a metabolism cage. The urine collection was carried out in 0-6 and 0-24 hour periods. The control animals were administered 25 cm^3 /kg physiological salt solution through a gastric tube. The test substance was administered to the animals through a gastric tube at a dose of 5 mg/kg in physiological salt solution of an amount corresponding to the amount of physiological salt solution given to the control animals. After 6 hours the animals were administered the same volume of physiological saline solution as the volume excreted with 0-6 hours through a gastric tube. The amount of secreted urine between 0 to 6 and 0 to 24 hours was measured and calculated together with the concentration of sodium and potassium and the Na/K ratio of the urine secreted within a given period. Simultaneously with each test control groups treated with physiological salt solution and hypothiazide were used. Effect of a single oral dose of 5 mg/kg of the compouns on the secretion of water, sodium and potassium within 0-6 and 0-24 hours in the % of the simultaneously measured control values and on the secreted Na/K.

Row | Compound | K secretion, % of simultaneously measured control (0-6 h) [%] | Na secretion, % of simultaneously measured control (0-6 h) [%] | Water secretion, % of simultaneously measured control (0-6 h) [%] | secreted Na/K (0-6 h, control 1.81) | K secretion, % of simultaneously measured control (0-24 h) [%] | Na secretion, % of simultaneously measured control (0-24 h) [%] | Water secretion, % of simultaneously measured control (0-24 h) [%] | secreted Na/K (0-24 h, control 2.45) | Na/K ratio (in words) | secretion of urine amount and alkali metal ion
1 | NS(=O)(=O)c1cc2c(cc1Cl)NCNS2(=O)=O [Hypothiazide, reference compound] | 117 | 187 | 159 | 3.90 | 109 | 123 | 119 | 3.50 | – | –
2 | NS(=O)(=O)c1cc(C(=O)NN2CCc3ccccc3C2)ccc1Cl [Example 1, 2-[(3'-sulfamoyl-4'-chloro)-benzoyl]-amino-1,2,3,4-tetrahydro-isoquinoline] | 145 | 260 | 216 | 9.09 | 82 | 152 | 148 | 5.94 | favorable | particularly advantageous
3 | COc1cc2c(cc1OC)C(C)N(NC(=O)c1ccc(Cl)c(S(N)(=O)=O)c1)CC2 (stereo not drawn) [Example 3, 1-methyl-2-[(3'-sulfamoyl-4'-chloro-benzoyl)-amino]-6,7-dimethoxy-1,2,3,4-tetrahydro-isoquinoline-monohydrate] | 104 | 186 | 147 | 4.74 | 84 | 121 | 112 | 3.99 | – | –
4 | CC1c2ccccc2CCN1NC(=O)c1ccc(Cl)c(S(N)(=O)=O)c1 (stereo not drawn) [Example 2, 1-methyl-2-[(3'-sulfamoyl-4'-chloro)-benzoyl]-amino-1,2,3,4-tetrahydro-isoquinoline] | 170 | 279 | 233 | 7.56 | 100 | 151 | 154 | 5.38 | favorable | particularly advantageous
